The record followed here is patent publication US9585903B2, “Pharmaceutical composition comprising sophorolipid in combination with an antibiotic” (priority 2013, dated 2017).

Structures can show the parent of a compound that is named as a salt. Where two headings read alike, the source gives them in different places.

Common to all, as to type: cell-based
Assay [1] concerns Escherichia coli (ATCC-8739). Briefly: MIC determination on culture plate. To be noted: against E. coli (ATCC8739). The source says:
(§1) The test microorganisms—Staphylococcus aureus (ATCC-29737) (gram positive) and Escherichia coli (ATCC-8739) (gram negative) used in the invention were procured from National Collection of Industrial Microorganisms, NCL. These two bacteria are of concern due to following reasons—Staphylococcus aureus, capable of causing wide range of severe skin infections; is rapidly evolving resistance to contemporary topical as well as systemic antibiotics (Englander and Friedman 2010). And Escherichia coli, another index bacterium; is more than just a harmless intestinal inhabitant; it can also be a highly versatile, and frequently deadly pathogen. Several different E. coli strains cause diverse intestinal and extra-intestinal diseases by means of virulence factors that affect a wide range of cellular processes (Kaper et al. 2004).
(§2) Accordingly, the stock solutions were prepared in sterile distilled water to assess the MIC values of the antibiotic and SL. The stock strength used was 1 mg/ml for antibiotics and 10 mg/ml for SL. The conjugative/synergistic effect of SL and tetracycline was checked against S. aureus while the conjugative effect of SL and cefaclor was checked against E. coli. In the first step, A600 i.e. absorbance of bacterial suspension giving isolated colonies was fixed and the same A600 was maintained throughout the experiment. Then the MIC values were determined for SL as well as antibiotic against the bacteria. Minimum Inhibitory Concentration (MIC) is defined as the lowest concentration of compound that inhibits visible growth of microorganisms on the culture plate (Rai et al. 2010). For assessing the conjugative effect, the sublethal concentrations of both antimicrobial agents were used so as to rightly evaluate the conjugative effect. Against S. aureus, sublethal concentration of SL was decided to be 300 μg/ml and for tetracycline it was 15 μg/ml.
(§3) The stock solutions were prepared in sterile distilled water to assess the MIC values of the antibiotic and SL. The stock strength used was 1 mg/ml for antibiotics and 10 mg/ml for SL. […]

The subject of assay [2] is Escherichia coli (ATCC-8739). Briefly: Assay of conjugative action of SL and antibiotic (micro dilution and spread plate, CFU count, % cell survival).
Procedure: (§4) Accordingly, the stock solutions were prepared in sterile distilled water to assess the MIC values of the antibiotic and SL. The stock strength used was 1 mg/ml for antibiotics and 10 mg/ml for SL. […] In the first step, A600 i.e. absorbance of bacterial suspension giving isolated colonies was fixed and the same A600 was maintained throughout the experiment. Then the MIC values were determined for SL as well as antibiotic against the bacteria. […] For assessing the conjugative effect, the sublethal concentrations of both antimicrobial agents were used so as to rightly evaluate the conjugative effect.
(§5) According to another aspect, the assay of conjugative action of SL and antibiotic was performed using standard micro dilution and spread plate method. The reaction mixtures were prepared by adding SL and antibiotic stock solutions to sterile distilled water in requisite volumes followed by the addition of bacterial suspension. The control reactions were also set with both bacterial systems to evaluate the effect of antibiotic and SL alone. Controls without addition of any antimicrobial agent were also maintained. The reaction mixtures were incubated at 28° C., 180 rpm for 6 h. The samples were removed at periodic intervals of 2 h, 4 h and 6 h and number of Colony Forming Units (CFUs) were determined by spreading 50 μl of mixture on Nutrient agar plates. […]
Assay [3] concerns Staphylococcus aureus (ATCC-29737). Briefly: MIC determination on culture plate.
Excerpt: as §1, §2, §3

Assay [4] shares this test system. Put plainly: Assay of conjugative action of SL and antibiotic (micro dilution and spread plate, CFU count, % cell survival). The note with it: FIG. 2(a); tetracycline 15 μg/ml, SL 300 μg/ml; up to 6 h exposure.
Procedure: as §4, §5

As for `N[C@@H](C(=O)N[C@@H]1C(=O)N2C(C(=O)O)=C(Cl)CS[C@H]12)c1ccccc1` [Cefaclor], the MIC in assay [1] was 200 µg/mL. Also, the “exposure required to get equivalent effect (~98% killing)” value in assay [2] (E. coli, cefaclor alone 50 μg/ml) worked out at 6 h. Also, the “inhibition of E. coli (in words)” value in assay [2] (FIG. 2(b), cefaclor 50 μg/ml, SL 500 μg/ml, up to 6 h exposure) was “almost total inhibition at the end of 6 h exposure”.

In the case of `CN(C)[C@@H]1C(O)=C(C(N)=O)C(=O)[C@@]2(O)C(O)=C3C(=O)c4c(O)cccc4[C@@](C)(O)[C@H]3C[C@@H]12` [tetracycline-HCl], the MIC in assay [3] (Staphylococcus aureus, against S. aureus (ATCC29737), read-out: MIC value) was 150 µg/mL; in assay [3] (against Staphylococcus aureus), 150 μn/ml. In addition, the “inhibition of S. aureus (in words)” value in assay [4] is recorded as “cannot achieve total inhibition even after 6 h”.
